Data on three molecules can be found in EP1004317A1, “REMEDIES FOR DISEASES ASSOCIATED WITH BONE RESORPTION” (CHUGAI SEIYAKU KABUSHIKI KAISHA, priority 1997, dated 1999).

Structures can show the parent of a compound that is named as a salt. Marks after values point to notes of the source that are not given here.

Assay [1] deals with ovariectomized rats. Description: Effect on ovariectomized rats: lumbar bone density. Type of assay: in vivo, Female Wistar-Imamichi rats. The note with it: sham group = 100%, control OVX group 85.2%. An excerpt:
(§1) Female Wistar-Imamichi rats were subjected to ovariectomy (OVX). As test drugs, use was made of L-N-6-(1-iminoethyl)lysine hydrochloride (NIL) and S-ethylisothiourea (EIT) which are known as selective iNOS inhibitors. […] To confirm the validity of the test system, 17-β-estradiol (βE2) was also employed.
(§2) One day after OVX, the rats were divided into 7 groups each having 7 animals. The administration of the drug was started on the day 4 after OVX. As a control, a sham group (7 animals) was also employed. NIL was orally administered in a dose of 0.1 or 0.02 mg/kg (0.1 ml per 100 g of body weight) 5 times per week for 10 weeks.
In this graph, the data are expressed in "mean ± standard deviation". According to Dunnet's multiple comparison method, the statistically significant differences from the control ovariectomy group are expressed as follows: • **: p < 0.01, ***: p < 0.001.

Assay [2] concerns ovariectomized rats. Description: Effect on ovariectomized rats: biochemical parameter of urine (bone resorption marker). Type of assay: in vivo, Female Wistar-Imamichi rats. The note with it: for D-pyr/Cre: OVX rats, urine collected after the final administration, mean ± standard deviation, n = 7, control OVX 11.83 ± 2.02.
Source text: as §1, §2
According to Dunnet's multiple comparison method, the statistically significant differences from the control ovariectomy group are expressed as follows: **: p < 0.01, ***: p < 0.001.
Number of animals/group = 7. Mean ± standard deviation.

For assay [3], the system named is eNOS/iNOS. As to conditions: cited from earlier work.
Assay [4] deals with nNOS/iNOS. As to conditions: cited from earlier work.
The subject of assay [5] is cNOS/iNOS. As to conditions: cited from earlier work.

In assay [1] (EIT administration group, 24 hours after the final administration, p < 0.01), `CCSC(=N)N` [EIT, S-ethylisothiourea] registered a lumber bone density of 92.6%. In addition, in assay [2] (EIT administration group, no statistically significant difference), the “excretion of deoxypyridinoline (D-pyr) versus control OVX group (in words)” value is reported as “a tendency toward decrease”. Moreover, the D-pyr/Cre in assay [2] (dose 0.1 mg/kg) is recorded as 9.95 ± 1.71. The “eNOS/iNOS (NOS inhibitory activity expressed in the ratio of IC50)” value in assay [3] is reported as 28.46. Besides, the “nNOS/iNOS (NOS inhibitory activity expressed in the ratio of IC50)” value in assay [4] is 19.23.
For the molecule `CC(=N)NCCCC[C@H](N)C(=O)O` [NIL, L-N-6-(1-iminoethyl)lysine hydrochloride], the lumber bone density is recorded as 86.8% in assay [1] (0.02 mg/kg orally, 5 times per week for 10 weeks) and 90.2% in assay [1] (0.1 mg/kg orally, 5 times per week for 10 weeks). Moreover, the “excretion of deoxypyridinoline (D-pyr), acceleration versus control OVX group (in words)” value in assay [2] (0.02 mg/kg, p < 0.01) is given as “significantly inhibited”. Moreover, the D-pyr/Cre in assay [2] (dose 0.02 mg/kg) is listed as 8.70 ± 1.59**; in assay [2] (dose 0.1 mg/kg), 10.43 ± 1.15. Moreover, the “cNOS/iNOS (NOS inhibitory activity expressed in the ratio of IC50)” value in assay [5] is 28.
For the molecule `C[C@]12CC[C@@H]3c4ccc(O)cc4CC[C@H]3[C@@H]1CC[C@@H]2O` [βE2, 17-β-estradiol], the D-pyr/Cre in assay [2] (dose 0.02 mg/kg) was 4.16 ± 1.45**.
